According to ChEMBL document CHEMBL3997816, “Discovery and characterization of [(cyclopentyl)ethyl]benzoic acid inhibitors of microsomal prostaglandin E synthase-1” (Bioorg Med Chem Lett, 2017):

target: T1, Prostaglandin E synthase (Homo sapiens, UniProt O14684); assay: Inhibition of human mPGES1 expressed in HEK293 microsomes assessed as reduction in PGE2 production using PGH2 as substrate after 2.5 mins by LC-MS analysis; conditions: not given
T1 sequence (O14684 whole entry): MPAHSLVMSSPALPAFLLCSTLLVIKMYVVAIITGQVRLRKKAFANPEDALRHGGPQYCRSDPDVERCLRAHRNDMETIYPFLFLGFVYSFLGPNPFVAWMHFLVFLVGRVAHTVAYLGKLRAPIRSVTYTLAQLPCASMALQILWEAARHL

Row | Structure (SMILES) | IC50 [nM]
1 | O=C(O)c1ccc(Cl)cc1OC[C@@H]1CCC[C@@H]1NC(=O)C1CCN(c2ccc(C(F)(F)F)cc2)CC1 | 2
2 | O=C(O)c1ccccc1CC[C@@H]1CCC[C@@H]1NC(=O)C1CCN(c2ccc(OC(F)(F)F)cc2)CC1 | 1
3 | O=C(O)c1ccc(Cl)cc1NC[C@@H]1CCC[C@@H]1NC(=O)C1CCN(c2ccc(C(F)(F)F)cc2)CC1 | 4

target: T2, Prostaglandin E synthase (Homo sapiens) (UniProt O14684); assay: (§1) Inhibition of mPGES1 in human whole blood assessed as reduction in LPS-induced PGE2 production preincubated for 30 mins followed by LPS addition measured after 20 to 24 hrs by LC-MS analysis; conditions: not given
T2 sequence (whole entry): T1 sequence (O14684 whole entry)

Row | Structure (SMILES) | IC80 [nM]
4 | O=C(O)c1ccc(Cl)cc1OC[C@@H]1CCC[C@@H]1NC(=O)C1CCN(c2ccc(C(F)(F)F)cc2)CC1 | 25
5 | O=C(O)c1ccccc1CC[C@@H]1CCC[C@@H]1NC(=O)C1CCN(c2ccc(OC(F)(F)F)cc2)CC1 | 43
6 | O=C(O)c1ccc(Cl)cc1NC[C@@H]1CCC[C@@H]1NC(=O)C1CCN(c2ccc(C(F)(F)F)cc2)CC1 | 8

target: T1, Prostaglandin E synthase; assay: as §1; conditions: not given

Row | Structure (SMILES) | IC50 [nM]
7 | O=C(O)c1ccc(Cl)cc1OC[C@@H]1CCC[C@@H]1NC(=O)C1CCN(c2ccc(C(F)(F)F)cc2)CC1 | 8
8 | O=C(O)c1ccccc1CC[C@@H]1CCC[C@@H]1NC(=O)C1CCN(c2ccc(OC(F)(F)F)cc2)CC1 | 10
9 | O=C(O)c1ccc(Cl)cc1NC[C@@H]1CCC[C@@H]1NC(=O)C1CCN(c2ccc(C(F)(F)F)cc2)CC1 | 3

target: T3, Prostaglandin G/H synthase 1 (Homo sapiens, UniProt P23219); assay: Inhibition of COX1 in human whole blood assessed as effect on LPS-induced TXB2 level preincubated for 30 mins followed by LPS addition measured after 20 to 24 hrs by LC-MS analysis; conditions: not given
T3 sequence (P23219 whole entry): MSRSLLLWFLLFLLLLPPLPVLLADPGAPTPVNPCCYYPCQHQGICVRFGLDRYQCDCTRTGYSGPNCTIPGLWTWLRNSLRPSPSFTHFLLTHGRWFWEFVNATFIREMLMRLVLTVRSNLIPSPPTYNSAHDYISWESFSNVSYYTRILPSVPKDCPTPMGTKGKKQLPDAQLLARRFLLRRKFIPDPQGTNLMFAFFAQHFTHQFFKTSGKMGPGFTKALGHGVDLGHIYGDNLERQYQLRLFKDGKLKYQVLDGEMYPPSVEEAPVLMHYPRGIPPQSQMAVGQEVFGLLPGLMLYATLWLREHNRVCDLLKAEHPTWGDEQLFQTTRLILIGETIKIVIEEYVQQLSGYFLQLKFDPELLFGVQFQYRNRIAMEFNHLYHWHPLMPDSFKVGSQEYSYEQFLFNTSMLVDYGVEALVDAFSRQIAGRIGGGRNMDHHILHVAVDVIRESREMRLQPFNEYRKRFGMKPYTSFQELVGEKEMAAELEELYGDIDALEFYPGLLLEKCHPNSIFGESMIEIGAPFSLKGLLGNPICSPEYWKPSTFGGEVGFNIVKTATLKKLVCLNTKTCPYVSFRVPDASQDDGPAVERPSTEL

Row | Structure (SMILES) | inhibition (INH)
10 | O=C(O)c1ccc(Cl)cc1NC[C@@H]1CCC[C@@H]1NC(=O)C1CCN(c2ccc(C(F)(F)F)cc2)CC1 | Not Active

target: T3, Prostaglandin G/H synthase 1; assay: Inhibition of COX1 in human whole blood assessed as effect on LPS-induced PGF2alpha level preincubated for 30 mins followed by LPS addition measured after 20 to 24 hrs by LC-MS analysis; conditions: not given

Row | Structure (SMILES) | inhibition (INH)
11 | O=C(O)c1ccc(Cl)cc1NC[C@@H]1CCC[C@@H]1NC(=O)C1CCN(c2ccc(C(F)(F)F)cc2)CC1 | Not Active

target: T1, Prostaglandin E synthase; assay: Inhibition of mPGES1 in human A549 cells assessed as reduction in IL-1beta-induced PGE2 production preincubated for 30 mins followed by IL-1beta addition measured after 18 hrs by enzyme immunoassay; type: cell-based; conditions: not given

Row | Structure (SMILES) | IC50 [nM]
12 | O=C(O)c1ccc(Cl)cc1NC[C@@H]1CCC[C@@H]1NC(=O)C1CCN(c2ccc(C(F)(F)F)cc2)CC1 | 3.5

target: T4, Prostaglandin G/H synthase 2 (Homo sapiens, UniProt P35354); assay: Inhibition of COX2 in human A549 cells assessed as reduction in IL-1beta-induced PGI2 production preincubated for 30 mins followed by IL-1beta addition measured after 18 hrs by enzyme immunoassay; type: cell-based; conditions: a549, 18 h
T4 sequence (P35354 whole entry): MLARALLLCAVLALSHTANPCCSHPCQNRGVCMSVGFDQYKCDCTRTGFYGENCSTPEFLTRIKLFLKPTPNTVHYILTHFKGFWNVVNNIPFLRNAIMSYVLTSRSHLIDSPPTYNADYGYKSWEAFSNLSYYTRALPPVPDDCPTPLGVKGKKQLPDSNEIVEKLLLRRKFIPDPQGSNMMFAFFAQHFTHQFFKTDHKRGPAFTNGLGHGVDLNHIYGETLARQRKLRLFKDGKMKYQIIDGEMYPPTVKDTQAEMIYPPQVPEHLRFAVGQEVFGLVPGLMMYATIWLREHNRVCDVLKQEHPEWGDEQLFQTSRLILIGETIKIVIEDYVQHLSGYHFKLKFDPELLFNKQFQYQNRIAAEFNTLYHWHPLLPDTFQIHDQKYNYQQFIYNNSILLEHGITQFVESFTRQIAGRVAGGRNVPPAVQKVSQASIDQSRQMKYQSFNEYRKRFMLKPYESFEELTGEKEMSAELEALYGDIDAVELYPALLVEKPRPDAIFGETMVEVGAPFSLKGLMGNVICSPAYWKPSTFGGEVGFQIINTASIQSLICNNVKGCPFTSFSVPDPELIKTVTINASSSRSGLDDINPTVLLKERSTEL

Row | Structure (SMILES) | inhibition (INH)
13 | O=C(O)c1ccc(Cl)cc1NC[C@@H]1CCC[C@@H]1NC(=O)C1CCN(c2ccc(C(F)(F)F)cc2)CC1 | Not Active

system: not listed separately; assay: Clearance in rat at 1 mg/kg, iv; type: ADME, organism-based; conditions: in vivo

Row | Structure (SMILES) | clearance [mL/min/kg]
14 | O=C(O)c1ccc(Cl)cc1OC[C@@H]1CCC[C@@H]1NC(=O)C1CCN(c2ccc(C(F)(F)F)cc2)CC1 | 57
15 | O=C(O)c1ccccc1CC[C@@H]1CCC[C@@H]1NC(=O)C1CCN(c2ccc(OC(F)(F)F)cc2)CC1 | 17
16 | O=C(O)c1ccc(Cl)cc1NC[C@@H]1CCC[C@@H]1NC(=O)C1CCN(c2ccc(C(F)(F)F)cc2)CC1 | 40

target: CYP2C9 (Homo sapiens, UniProt P11712); assay: Inhibition of CYP2C9 (unknown origin) in microsomes at 10 uM relative to control; type: ADME; conditions: not given
Sequence (P11712 whole entry): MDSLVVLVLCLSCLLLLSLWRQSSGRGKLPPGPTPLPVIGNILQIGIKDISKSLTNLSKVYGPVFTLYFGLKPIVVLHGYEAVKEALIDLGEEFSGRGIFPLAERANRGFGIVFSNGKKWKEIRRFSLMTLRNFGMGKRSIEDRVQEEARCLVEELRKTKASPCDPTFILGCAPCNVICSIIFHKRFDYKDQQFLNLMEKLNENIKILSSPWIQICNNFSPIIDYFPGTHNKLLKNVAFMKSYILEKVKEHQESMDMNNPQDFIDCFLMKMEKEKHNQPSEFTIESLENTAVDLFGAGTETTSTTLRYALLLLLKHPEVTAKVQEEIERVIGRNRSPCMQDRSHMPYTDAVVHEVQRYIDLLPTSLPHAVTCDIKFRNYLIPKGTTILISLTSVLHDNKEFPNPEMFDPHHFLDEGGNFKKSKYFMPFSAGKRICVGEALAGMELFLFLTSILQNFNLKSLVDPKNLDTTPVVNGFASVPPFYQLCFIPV

Row | Structure (SMILES) | inhibition at 10 µM [%]
17 | O=C(O)c1ccc(Cl)cc1OC[C@@H]1CCC[C@@H]1NC(=O)C1CCN(c2ccc(C(F)(F)F)cc2)CC1 | 39
18 | O=C(O)c1ccccc1CC[C@@H]1CCC[C@@H]1NC(=O)C1CCN(c2ccc(OC(F)(F)F)cc2)CC1 | 32
19 | O=C(O)c1ccc(Cl)cc1NC[C@@H]1CCC[C@@H]1NC(=O)C1CCN(c2ccc(C(F)(F)F)cc2)CC1 | 71
